The values below come from patent publication US5710179A, “Antitumor agent” (priority 1995, dated 1998).

For one experiment, the system named is Meth A sarcoma. Nature of the experiment: Antitumor activity on mouse with carcinoma (Meth A sarcoma, i.p., 40 days). The class given is in vivo, BALB/c male mice. The note with it: for Average day surviving: 40 days, control 28.1 ± 0.2; for Prolongation percentage of life (T/C %): control 100; for Number surviving after 40 days: group of 10, control 0. The protocol: About 1×10^6 cells/mouse of Meth A sarcoma was intraperitoneally injected into 8-week-old BALB/c male mice. From the next day after the administration, mice in a group of 10 were intraperitoneally injected twice a week with 0.2 ml of a physiological saline containing 0.0005, 0.005, 0.05 or 0.5 μg of any one of the compounds 1-5, and observed for 40 days. As a control, 0.2 ml/mouse/shot of physiological saline free of the compounds 1-5 was intraperitoneally injected to other groups of mice similarly as above.
Based on the data of the average day surviving (T) in the Groups of mice with the compounds 1-5 and the average day surviving (C) in the control group of mice, the prolongation percentage of life (T/C %) was calculated by the formula 1. [formula]

Experiment [1] relates to human malignant tumors. The settings on record: Foods & Food Ingredients Journal of Japan, Vol.160 (1994); cited from earlier work.
The test system of the next experiment is HLC-1 cell (lung cancer). Put plainly: Inhibition of tumor growth in nude mice, HLC-1. The class given is in vivo, human. The settings on record: 0.05 μg/mouse s.c. twice a week. The arrangement: Average tumor weight, on a wet cell basis: unit not given here.
Experiment [2] concerns HGC-27 cell (gastric cancer). Nature of the experiment: Inhibition of tumor growth in nude mice, HGC-27. The class given is in vivo, human. The settings on record: 0.05 μg/mouse s.c. twice a week.
The test system of experiment [3] is Hep G2 cell (cancer of liver). Put plainly: Inhibition of tumor growth in nude mice, Hep G2. The note with it: 0.05 μg/mouse s.c. twice a week. The class given is in vivo, human.
The subject of experiment [4] is HeLa cell (uterine cancer). Nature of the experiment: Inhibition of tumor growth in nude mice, HeLa. The settings on record: 0.05 μg/mouse s.c. twice a week. The class given is in vivo, human.
The test system of experiment [5] is RPMI 4788 cell (colon cancer). Nature of the experiment: Inhibition of tumor growth in nude mice, RPMI 4788. The note with it: 0.05 μg/mouse s.c. twice a week. The class given is in vivo, human.
The test system of experiment [6] is WiDr cell (rectum cancer). Put plainly: Inhibition of tumor growth in nude mice, WiDr. The class given is in vivo, human. The settings on record: 0.05 μg/mouse s.c. twice a week.
In experiment [7] the test system is KB cell (rhinopharynx cancer). Put plainly: Inhibition of tumor growth in nude mice, KB. The class given is in vivo, human. The settings on record: 0.05 μg/mouse s.c. twice a week.
Experiment [8] concerns Hep-2 cell (thyroid gland cancer). Nature of the experiment: Inhibition of tumor growth in nude mice, Hep-2. The class given is in vivo, human. The settings on record: 0.05 μg/mouse s.c. twice a week.
The subject of experiment [9] is G-361 cell (malignant melanoma). Nature of the experiment: Inhibition of tumor growth in nude mice, G-361. The class given is in vivo, human. The note with it: 0.05 μg/mouse s.c. twice a week.
For the next experiment, the system named is HL-60 cell (leukemia). Nature of the experiment: Inhibition of tumor growth in nude mice, HL-60. The class given is in vivo, human. The settings on record: 0.05 μg/mouse s.c. twice a week.
The next experiment concerns U-937 cell (lymphoma). Put plainly: Inhibition of tumor growth in nude mice, U-937. The class given is in vivo, human. The note with it: 0.05 μg/mouse s.c. twice a week.
Experiment [10] deals with human malignant tumors. Nature of the experiment: Antitumor activity by the inhibition of tumor growth, nude mice, summary over human tumors. The note with it: 0.05 μg s.c. twice a week. The class given is in vivo. On the procedure: Based on the data of Experiment 2, a minimum dose of the compounds 1-5 to a nude mouse was estimated to be about 0.05 μg/mouse/shot, and the antitumor activity of the compounds 1-5 was tested by administering them at the above dose to nude mice transplanted with human malignant tumors.
Thereafter mice, observed the tumor cells' insertion, were grouped in a group of 7 mice, then administered twice a week with 0.2 ml of a physiological saline containing 0.05 μg of the compound 2 to the dorsal subcutaneous tissues, and observed for 25 days. As a control, mice in other group were administered in the same administration schedule with 0.2 ml/shot of physiological saline free of the compound 2.
On the 27th day after the transplantation, tumor masses formed in the nude mice were extracted and weighed, on a wet cell basis, according to the method as disclosed by Y. Shimosato and N. Tamaoki in "Jingan-to-Nude-mouse (Human Cancer and Nude Mice)", pp. 321-323 (1982), published by Ishiyaku Publishers, Inc., Tokyo, Japan, and the percentage surviving (%) on the 35th day after the transplantation was calculated.

Where [11] appears, read: 0.0005 μg/0.2 ml/mouse i.p. twice a week.
Where [12] appears, read: 0.005 μg/0.2 ml/mouse i.p. twice a week.
Setting [13] is: 0.05 μg/0.2 ml/mouse i.p. twice a week.
Setting [14] is: 0.05 μg/0.2 ml/mouse i.p. twice a week, all marked * (significant, 5% level or lower vs control).
The mark [15] stands for this setting: 0.5 μg/0.2 ml/mouse i.p. twice a week.
Where [16] appears, read: 0.5 μg/0.2 ml/mouse i.p. twice a week, all marked * (significant, 5% level or lower vs control).

Each structure is given as a SMILES string. Where a name gives a salt, the structure may show the parent alone. Bounds are passed on as bounds.

In the case of `CC(C)=CCc1cc(/C=C/C(=O)O)cc(CC=C(C)C)c1O` [compound 5, potassium salt of 3-[4-hydroxy-3,5-bis(3-methyl-2-butenyl)phenyl]-2-propenoic acid], the Average day surviving in the experiment on Meth A sarcoma (setting [11]) was found to be 32.6 ± 0.6 days; in the experiment with Meth A sarcoma (setting [12]), 36.1 ± 0.5 days; in the experiment on Meth A sarcoma (setting [13]), 38.2 ± 0.4 days; in the experiment on Meth A sarcoma (setting [15]) it was 39.2 ± 0.3 days. The “Prolongation percentage of life (T/C %)” value came to 116.0% in the experiment on Meth A sarcoma (setting [11]), 128.5% in the experiment with Meth A sarcoma (setting [12]), 135.9% in the experiment on Meth A sarcoma (setting [14]) and 139.5% in the experiment on Meth A sarcoma (setting [16]). The “Number surviving after 40 days” value in the experiment on Meth A sarcoma (setting [11]) was 2; with Meth A sarcoma (setting [12]), 6; in the experiment with Meth A sarcoma (setting [13]), 8; with Meth A sarcoma (setting [15]), 9.
For the molecule `O=c1c(O)c(-c2ccc(O)c(O)c2)oc2cc(O)cc(O)c12` [quercetin], the “antitumor activity on human malignant tumors” value with human malignant tumors [1] is on record as “exerted an antitumor activity”.
Regarding `CC(C)=CCc1cc(/C=C/C(=O)O)cc(CC=C(C)C)c1O` [compound 2, sodium salt of 3-[4-hydroxy-3,5-bis(3-methyl-2-butenyl)phenyl]-2-propenoic acid], the Average day surviving in the experiment on Meth A sarcoma (setting [11]) is 32.3 ± 0.8 days; in the experiment with Meth A sarcoma (setting [12]) it was 36.5 ± 0.5 days; in the experiment with Meth A sarcoma (setting [13]), 38.1 ± 0.1 days; in the experiment with Meth A sarcoma (setting [15]) it was more than 40.0 days. Also, the “Prolongation percentage of life (T/C %)” value in the experiment on Meth A sarcoma (setting [11]) was found to be 114.9%; with Meth A sarcoma (setting [12]), 129.9%; with Meth A sarcoma (setting [14]), 135.6%; with Meth A sarcoma (setting [16]), 142.3%. Besides, the “Number surviving after 40 days” value in the experiment on Meth A sarcoma (setting [11]) amounted to 2; with Meth A sarcoma (setting [12]) it was 6; with Meth A sarcoma (setting [13]), 8; with Meth A sarcoma (setting [15]) it was 10. Also, the “Average tumor weight, on a wet cell basis” value in the experiment with HLC-1 cell (lung cancer) (27th day after transplantation, control 1.25 ± 0.81) is 0.124 ± 0.06; in [2] (27th day after transplantation, control 1.86 ± 0.64, in g (unit assumed)), 0.35 ± 0.09; in experiment [3] (27th day after transplantation, control 2.06 ± 0.85, in g (unit assumed)), 0.18 ± 0.02; in experiment [4] (27th day after transplantation, control 1.36 ± 0.61, in g (unit assumed)), 0.54 ± 0.06; in experiment [5] (27th day after transplantation, control 2.95 ± 1.36, in g (unit assumed)), 0.21 ± 0.03; in experiment [6] (27th day after transplantation, control 1.83 ± 0.85, in g (unit assumed)), 0.36 ± 0.02. The “Average tumor weight, on a wet cell basis” value was determined as 0.54 ± 0.03 in [7] (27th day after transplantation, control 2.12 ± 0.96, in g (unit assumed)); 0.81 ± 0.65 in [8] (27th day after transplantation, control 2.16 ± 1.31, in g (unit assumed)); 0.36 ± 0.02 in experiment [9] (27th day after transplantation, control 1.96 ± 0.98, in g (unit assumed)); 0.18 ± 0.03 in the experiment on HL-60 cell (leukemia) (27th day after transplantation, control 1.43 ± 0.08, in g (unit assumed)); 0.25 ± 0.02 in the experiment on U-937 cell (lymphoma) (27th day after transplantation, control 0.99 ± 0.81, in g (unit assumed)). The “Percentage surviving at judgement (%)” value in the experiment with HLC-1 cell (lung cancer) (35th day, control 71.4) is listed as 100%; in experiment [2] (35th day, control 85.7) it was 100%; in experiment [3] (35th day, control 42.8), 100%; in [4] (35th day, control 100), 100%; in [5] (35th day, control 71.4), 100%; in experiment [6] (35th day, control 85.7), 100%. Besides, the “Percentage surviving at judgement (%)” value came to 100% in experiment [7] (35th day, control 42.8); 100% in experiment [8] (35th day, control 42.8); 100% in experiment [9] (35th day, control 57.1); 100% with HL-60 cell (leukemia) (35th day, control 100); 100% in the experiment with U-937 cell (lymphoma) (35th day, control 85.7). The “antitumor effect on human malignant tumors” value in the experiment on human malignant tumors [10] is “strong antitumor effect”. Besides, in the experiment with human malignant tumors [10], the “percentage surviving on the 35th day after the transplantation” value was “attained a desired percentage surviving”.
Regarding `CC(C)=CCc1cc(/C=C/C(=O)O)cc(CC=C(C)C)c1O` [compound 1, 3-[4-hydroxy-3,5-bis(3-methyl-2-butenyl)phenyl]-2-propenoic acid], the Average day surviving is 33.5 ± 0.6 days with Meth A sarcoma (setting [11]), 35.0 ± 0.9 days with Meth A sarcoma (setting [12]), 37.3 ± 0.4 days in the experiment with Meth A sarcoma (setting [13]) and 39.8 ± 0.1 days in the experiment on Meth A sarcoma (setting [15]). Also, the “Prolongation percentage of life (T/C %)” value came to 119.2% with Meth A sarcoma (setting [11]), 124.6% in the experiment on Meth A sarcoma (setting [12]), 132.7% in the experiment on Meth A sarcoma (setting [14]) and 141.6% with Meth A sarcoma (setting [16]). For the same molecule, the “Number surviving after 40 days” value in the experiment on Meth A sarcoma (setting [11]) is recorded as 3; with Meth A sarcoma (setting [12]) it was 5; in the experiment on Meth A sarcoma (setting [13]), 7; in the experiment on Meth A sarcoma (setting [15]), 9.
`CC(C)=CCc1cc(/C=C/C(=O)O)cc(CC=C(C)C)c1O` [compound 4, magnesium salt of 3-[4-hydroxy-3,5-bis(3-methyl-2-butenyl)phenyl]-2-propenoic acid]: the Average day surviving was 34.9 ± 0.3 days in the experiment on Meth A sarcoma (setting [11]), 35.7 ± 0.4 days in the experiment with Meth A sarcoma (setting [12]), 37.5 ± 0.2 days in the experiment on Meth A sarcoma (setting [13]) and more than 40.0 days in the experiment with Meth A sarcoma (setting [15]). For the same molecule, the “Prolongation percentage of life (T/C %)” value with Meth A sarcoma (setting [11]) was determined as 124.2%; with Meth A sarcoma (setting [12]), 127.0%; with Meth A sarcoma (setting [14]), 133.5%; in the experiment on Meth A sarcoma (setting [16]) it was 142.3%. Besides, the “Number surviving after 40 days” value in the experiment with Meth A sarcoma (setting [11]) turned out to be 3; with Meth A sarcoma (setting [12]) it was 5; in the experiment with Meth A sarcoma (setting [13]), 7; in the experiment with Meth A sarcoma (setting [15]) it was 10.
For the molecule `O=C(/C=C/c1ccc(O)c(O)c1)OCCc1ccccc1` [caffeic acid phenethyl ester], the “antitumor activity on human malignant tumors” value in the experiment with human malignant tumors [1] was “exerted an antitumor activity”.
In the case of `CC(C)=CCc1cc(/C=C/C(=O)O)cc(CC=C(C)C)c1O` [compound 3, calcium salt of 3-[4-hydroxy-3,5-bis(3-methyl-2-butenyl)phenyl]-2-propenoic acid], the Average day surviving came out at 31.1 ± 0.6 days in the experiment on Meth A sarcoma (setting [11]), 35.9 ± 0.3 days in the experiment on Meth A sarcoma (setting [12]), 38.9 ± 0.2 days in the experiment on Meth A sarcoma (setting [13]) and 39.0 ± 0.2 days with Meth A sarcoma (setting [15]). Further, the “Prolongation percentage of life (T/C %)” value turned out to be 110.7% in the experiment on Meth A sarcoma (setting [11]), 127.8% in the experiment on Meth A sarcoma (setting [12]), 138.4% in the experiment on Meth A sarcoma (setting [14]) and 138.8% in the experiment with Meth A sarcoma (setting [16]). The “Number surviving after 40 days” value was found to be 2 in the experiment on Meth A sarcoma (setting [11]), 6 with Meth A sarcoma (setting [12]), 8 with Meth A sarcoma (setting [13]) and 9 in the experiment on Meth A sarcoma (setting [15]).
